Reference: publication PMC11676982, “Heterotropic Activation of Cytochrome P450 3A4 by Perillyl Alcohol” (Pharmaceutics, 2024)

Key:
CYP2A6 [1] = target: T1, CYP2A6 (Homo sapiens, UniProt P11509); assay: Direct CYP inhibition assay in pooled HLMs, CYP2A6 (coumarin); assay type: in vitro ADME; conditions: pooled HLMs 0.2 mg/mL; substrate coumarin 5 μM; 10 min; 95% CI in parentheses; read-out: IC50 against CYP2A6
T1 sequence (P11509 1-494): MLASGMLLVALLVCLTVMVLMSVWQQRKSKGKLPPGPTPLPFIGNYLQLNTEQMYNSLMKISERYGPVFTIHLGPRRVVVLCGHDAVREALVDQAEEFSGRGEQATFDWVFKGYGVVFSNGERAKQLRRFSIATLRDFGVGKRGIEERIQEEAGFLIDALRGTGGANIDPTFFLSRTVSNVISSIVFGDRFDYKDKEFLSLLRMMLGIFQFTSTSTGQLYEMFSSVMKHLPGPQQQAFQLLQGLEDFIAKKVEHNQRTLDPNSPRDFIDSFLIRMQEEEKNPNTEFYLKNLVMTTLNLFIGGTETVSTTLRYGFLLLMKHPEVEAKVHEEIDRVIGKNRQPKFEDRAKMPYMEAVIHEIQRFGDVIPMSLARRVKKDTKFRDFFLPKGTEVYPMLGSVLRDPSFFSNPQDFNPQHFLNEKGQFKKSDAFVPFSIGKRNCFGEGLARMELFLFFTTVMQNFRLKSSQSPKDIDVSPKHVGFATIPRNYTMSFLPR

CYP2B6 [2] = target: T2, CYP2B6 (Homo sapiens, UniProt P20813); assay: Direct CYP inhibition assay in pooled HLMs, CYP2B6 (bupropion); conditions: read-out: IC50 against CYP2B6; pooled HLMs 0.2 mg/mL; substrate bupropion 50 μM; 10 min; 95% CI in parentheses
T2 sequence (P20813 1-491): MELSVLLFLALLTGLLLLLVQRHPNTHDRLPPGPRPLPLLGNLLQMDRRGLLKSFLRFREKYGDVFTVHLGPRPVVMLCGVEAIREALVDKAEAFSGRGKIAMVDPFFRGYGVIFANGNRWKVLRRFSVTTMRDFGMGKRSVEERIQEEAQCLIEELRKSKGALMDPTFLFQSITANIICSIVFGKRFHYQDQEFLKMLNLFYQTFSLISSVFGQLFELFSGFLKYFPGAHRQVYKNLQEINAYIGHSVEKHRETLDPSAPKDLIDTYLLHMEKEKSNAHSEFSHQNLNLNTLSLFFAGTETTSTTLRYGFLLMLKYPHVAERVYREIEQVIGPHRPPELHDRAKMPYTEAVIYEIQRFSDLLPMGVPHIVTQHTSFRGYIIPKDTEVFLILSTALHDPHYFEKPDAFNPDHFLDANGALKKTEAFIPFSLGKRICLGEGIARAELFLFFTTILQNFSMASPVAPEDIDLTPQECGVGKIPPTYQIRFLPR

CYP2C19 = CYP2C19 (Homo sapiens, UniProt P33261); assay: Direct CYP inhibition assay in pooled HLMs, CYP2C19 (S-mephenytoin); conditions: read-out: IC50 against CYP2C19; pooled HLMs 0.2 mg/mL; substrate (S)-mephenytoin 100 μM; 10 min; 95% CI in parentheses
CYP2A6 [3] = target: T1, CYP2A6; assay: Metabolism-dependent inhibition assay (IC50 shift) in pooled HLMs, CYP2A6; conditions: substrate coumarin; for IC50: pooled HLMs, 95% CI in parentheses
Description: (§1) The experiments for determining metabolism-dependent inhibition were conducted utilizing a non-dilution method. […] The pre-incubation was initiated by the addition of 1 mM NADPH and incubation for 30 min. Subsequently, final incubation was performed with the addition of a substrate (5 μM coumarin or 50 μM bupropion) in the presence of NADPH for 10 min; the total volume of the mixture was 200 μL. […] Mixtures were subjected to centrifugation at 3000× g for 20 min at 4 °C, and the supernatants were analyzed using LC-MS/MS. The experiment was performed using three separate samples.
(§2) The CYP-mediated activities in the presence of test substances were expressed as percentages of the corresponding control values.

CYP2B6 [4] = target: T2, CYP2B6; assay: Metabolism-dependent inhibition assay (IC50 shift) in pooled HLMs, CYP2B6; conditions: substrate bupropion
Description: as §1, §2

CYP2B6 [5] = target: T2, CYP2B6; assay: Determination of CYP inhibition mode and Ki in pooled HLMs, CYP2B6-mediated bupropion hydroxylation
Description: (§3) A 5 min pre-incubation was performed prior to initiating reactions with the addition of 1 mM NADPH. After incubation at 37 °C for 10 min, 200 μL of ice-cold acetonitrile containing 100 nM carbamazepine as an internal standard was added to terminate the reaction. The samples were agitated and centrifuged at 4 °C for 20 min at 3000× g. The supernatants were transferred to a 96-well plate for LC-MS/MS analysis. The experiment was performed using three separate samples.
(§4) Data acquired from the evaluation of enzyme inhibition using various concentrations of substrates and test compounds were fit to different models (competitive, noncompetitive, uncompetitive, or mixed), and inhibition constant (Ki) and goodness of fit values were obtained using GraphPad Prism. The appropriate type of inhibition was selected based on statistical goodness of fit tests including Akaike’s information criterion (AICc) with correction for small sample size and the standard deviation of the residuals (Sy.x).

CYP2A6 [6] = target: T1, CYP2A6; assay: Determination of CYP inhibition mode and Ki in pooled HLMs, CYP2A6-mediated coumarin 7-hydroxylation
Description: as §3, §4

[7] = test system: CYP isoforms (CYP1A2, CYP2A6, CYP2B6, CYP2C8, CYP2C9, CYP2C19, CYP2D6, CYP2E1, and CYP3A4); assay: Direct CYP inhibition assay in pooled HLMs, nine CYP isoforms (summary statement); conditions: up to 50 μM
[8] = IC50 without NADPH/IC50 with NADPH
[9] = best fit by AICc and Sy.x, Dixon plots

Sequence of CYP2C19 (P33261 whole entry): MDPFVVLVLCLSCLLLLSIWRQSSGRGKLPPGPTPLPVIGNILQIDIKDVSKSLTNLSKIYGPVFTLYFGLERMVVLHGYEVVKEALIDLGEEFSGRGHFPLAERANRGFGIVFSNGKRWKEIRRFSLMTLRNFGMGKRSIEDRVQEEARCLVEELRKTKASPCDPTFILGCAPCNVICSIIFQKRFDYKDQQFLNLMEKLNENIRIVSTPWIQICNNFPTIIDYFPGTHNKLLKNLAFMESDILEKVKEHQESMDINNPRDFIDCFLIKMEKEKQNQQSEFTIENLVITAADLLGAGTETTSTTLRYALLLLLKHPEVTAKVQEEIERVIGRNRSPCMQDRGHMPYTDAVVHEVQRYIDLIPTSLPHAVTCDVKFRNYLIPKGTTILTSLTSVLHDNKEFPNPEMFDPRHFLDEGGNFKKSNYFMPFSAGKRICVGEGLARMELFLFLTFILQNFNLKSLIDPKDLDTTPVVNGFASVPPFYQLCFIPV

Which IC50 (CYP2A6 [1]) does the source give for `N[C@@H]1C[C@H]1c1ccccc1` (racemic) [Tranylcypromine, reference compound] here?
Its IC50 is 0.5 µM.

`C=C(C)C1CC=C(C=O)CC1` (single isomer, unassigned; (+)) [(+)-PAH, (+)-perillaldehyde] was tested. Which IC50 (CYP2A6 [1]) did it give?
Its IC50 is 10.6 µM.

What about the IC50 (CYP2B6 [2]) of the same molecule?
Its IC50 is 29 µM.

And the IC50 (CYP2C19)?
The IC50 was 50.5 µM.

For `C=C(C)C1CC=C(C=O)CC1` (single isomer, unassigned; (-)) [(−)-PAH, (−)-Perillaldehyde], which IC50 (CYP2A6 [1]) is on record?
The IC50 was 3.64 µM.

What about the “IC50 fold-shift, CYP2A6” value (CYP2A6 [3]; [8]) of the same molecule?
Its value is 1.03.

And the IC50 (CYP2A6 [3]; read-out: IC50, pre-incubation with NADPH, CYP2A6, 30 min pre-incubation with NADPH)?
The IC50 was 7.99 µM.

And the IC50 (CYP2A6 [3]; read-out: IC50, pre-incubation without NADPH, CYP2A6, 30 min pre-incubation without NADPH)?
Its IC50 is 8.25 µM.

What about the “IC50 fold-shift, CYP2B6” value (CYP2B6 [4]; [8]) of the same molecule?
Its value is 0.78.

What about the IC50 (CYP2B6 [4]; read-out: IC50, pre-incubation without NADPH, CYP2B6, pooled HLMs, 30 min pre-incubation without NADPH, 95% CI in parentheses) of the same molecule?
Its IC50 is 11.9 µM.

And the IC50 (CYP2B6 [2])?
Its IC50 is 6.15 µM.

What about the IC50 (CYP2C19) of the same molecule?
Its IC50 is 18 µM.

What about the “Type of inhibition, CYP2B6” value (CYP2B6 [5]; [9]) of the same molecule?
Its value is “mixed inhibition model”.

What about the “Ki, CYP2B6, uncompetitive model (not selected)” value (CYP2B6 [5]; pooled HLMs, bupropion, 95% CI in parentheses) of the same molecule?
The value was 2.77 (2.31–3.28) μM.

And the Ki (CYP2B6 [5]; read-out: Ki, CYP2B6, mixed inhibition model (selected best fit), pooled HLMs, bupropion 12.5–100 μM, 95% CI in parentheses)?
Its Ki is 3.05 µM.

And the “Type of inhibition, CYP2A6” value (CYP2A6 [6]; [9])?
The value was “mixed inhibition model”.

What about the “Ki, CYP2A6, uncompetitive model (not selected)” value (CYP2A6 [6]; pooled HLMs, coumarin, 95% CI in parentheses) of the same molecule?
The value was 2.40 (2.04–2.82) μM.

And the Ki (CYP2A6 [6]; read-out: Ki, CYP2A6, mixed inhibition model (selected best fit), pooled HLMs, coumarin 1.25–10 μM, 95% CI in parentheses)?
The Ki was 1.72 µM.

With `C=C(C)[C@H]1CC=C(C(=O)O)CC1` [(−)-PA, (−)-perillic acid] as the molecule, how does the “Inhibition of activities of CYP isoforms (words)” value [7] read?
The value was “did not significantly inhibit”.

What about the “Inhibition of activities of CYP isoforms (words)” value ([7]; listed as PA) of the same molecule?
Its value is “not significantly inhibited”.

For `COc1ccc2[nH]c([S+]([O-])Cc3ncc(C)c(OC)c3C)nc2c1` (stereo not drawn) [Omeprazole, reference compound], which IC50 (CYP2C19) is on record?
The IC50 was 5.4 µM.
